# Source: US12655116B2, “Substituted isophthalic acid diamides” (Bayer Aktiengesellschaft, priority 2020, dated 2026)
# Legend:
# ECHCG [1] = experiment: Post-emergence herbicidal action against ECHCG; assay type: in vivo, Echinochloa crus-galli
# Summary of the method: (§1)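 A WP or EC formulation diluted in water with 0.2% wetting agent was sprayed at 600 to 800 l/ha onto one-leaf-stage plants grown in sandy loam. About 3 weeks later, action was rated visually in percent, 100% being dead plants.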
# DIGSA [2] = experiment: Pre-emergence herbicidal action against DIGSA; assay type: in vivo, Digitaria sanguinalis
# Summary of the method: (§2)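 Greenhouse pots of sandy loam held seeds covered with soil, onto which the compound was applied before emergence. An aqueous suspension or emulsion of WP or EC was used at 600 to 800 l/ha with 0.2% wetting agent. Percent damage was judged visually at 3 weeks.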
# VIOTR [3] = experiment: Pre-emergence herbicidal action against VIOTR; assay type: in vivo, Viola tricolor
# Summary of the method: as §2
# SETVI [4] = experiment: Pre-emergence herbicidal action against SETVI; assay type: in vivo, Setaria viridis
# Summary of the method: as §2
# AMARE [5] = experiment: Pre-emergence herbicidal action against AMARE; assay type: in vivo, Amaranthus retroflexus
# Summary of the method: as §2
# PHBPU [6] = experiment: Post-emergence herbicidal action against PHBPU; assay type: in vivo, Pharbitis purpurea; settings: dosage 20 g/ha
# Summary of the method: as §1
# ECHCG [7] = experiment: Pre-emergence herbicidal action against ECHCG; assay type: in vivo, Echinochloa crus-galli; settings: 80 g/ha
# Summary of the method: as §2
# MATIN [8] = experiment: Pre-emergence herbicidal action against MATIN; assay type: in vivo, Matricaria inodora
# Summary of the method: as §2
# ABUTH [9] = experiment: Post-emergence herbicidal action against ABUTH; assay type: in vivo, Abutilon theophrasti; settings: visual assessment about 3 weeks after treatment vs untreated controls
# Summary of the method: as §1
# MATIN [10] = experiment: Post-emergence herbicidal action against MATIN; assay type: in vivo, Matricaria inodora; settings: dosage 20 g/ha
# Summary of the method: as §1
# AVEFA [11] = experiment: Post-emergence herbicidal action against AVEFA; assay type: in vivo, Avena fatua; settings: visual assessment about 3 weeks after treatment, 100% = plants have died, 0% = like control plants
# Summary of the method: as §1
# SETVI [12] = experiment: Post-emergence herbicidal action against SETVI; assay type: in vivo, Setaria viridis
# Summary of the method: as §1
# POLCO [13] = experiment: Post-emergence herbicidal action against POLCO; assay type: in vivo, Polygonum convolvulus; settings: dosage 20 g/ha
# Summary of the method: as §1
# ABUTH [14] = experiment: Pre-emergence herbicidal action against ABUTH; assay type: in vivo, Abutilon theophrasti
# Summary of the method: as §2
# ALOMY [15] = experiment: Pre-emergence herbicidal action against ALOMY; assay type: in vivo, Alopecurus myosuroides; settings: 80 g/ha, pre-emergence, scored visually after 3 weeks vs untreated controls (100% = plants have died, 0% = like control plants)
# Summary of the method: as §2
# AVEFA [16] = experiment: Pre-emergence herbicidal action against AVEFA; assay type: in vivo, Avena fatua; settings: pre-emergence
# Summary of the method: as §2
# VERPE [17] = experiment: Post-emergence herbicidal action against VERPE; assay type: in vivo, Veronica persica; settings: Veronica persica, 504 h, 20 g/ha
# Summary of the method: as §1
# VERPE [18] = experiment: Pre-emergence herbicidal action against VERPE; assay type: in vivo, Veronica persica; settings: Veronica persica, 504 h, dosage 80 g/ha
# Summary of the method: as §2
# PHBPU [19] = experiment: Pre-emergence herbicidal action against PHBPU; assay type: in vivo, Pharbitis purpurea; settings: Ipomoea purpurea, 504 h, dosage 80 g/ha
# Summary of the method: as §2
# AMARE [20] = experiment: Post-emergence herbicidal action against AMARE; assay type: in vivo, Amaranthus retroflexus; settings: Amaranthus retroflexus, 504 h, 20 g/ha, visual assessment about 3 weeks after treatment, 100% = plants have died, 0% = like control plants
# Summary of the method: as §1
# POLCO [21] = experiment: Pre-emergence herbicidal action against POLCO; assay type: in vivo, Polygonum convolvulus; settings: Fallopia convolvulus, 504 h, dosage 80 g/ha
# Summary of the method: as §2
# ALOMY [22] = experiment: Post-emergence herbicidal action against ALOMY; assay type: in vivo, Alopecurus myosuroides; settings: Alopecurus myosuroides, 504 h, dosage 20 g/ha, visual assessment about 3 weeks after treatment vs untreated controls
# Summary of the method: as §1
# VIOTR [23] = experiment: Post-emergence herbicidal action against VIOTR; assay type: in vivo, Viola tricolor; settings: Viola tricolor, 504 h
# Summary of the method: as §1
# DIGSA [24] = experiment: Post-emergence herbicidal action against DIGSA; assay type: in vivo, Digitaria sanguinalis; settings: Digitaria sanguinalis, 504 h
# Summary of the method: as §1
# [25] = 80 g/ha, scored visually after 3 weeks vs untreated controls (100% = plants have died, 0% = like control plants)
# [26] = Setaria viridis, 504 h, dosage 20 g/ha
structure (smiles),measurement,setting,value
Cc1c(C(=O)Nc2nnnn2C)ccc(C(F)(F)F)c1C(=O)NCC1CC1 [Example 1-28],Post-emergence action against ECHCG in %,ECHCG [1]; dosage 5 g/ha,80%
same,Post-emergence action against ECHCG in %,ECHCG [1]; dosage 20 g/ha,90%
same,Pre-emergence action against DIGSA in %,DIGSA [2]; dosage 20 g/ha,100%
same,Pre-emergence action against DIGSA in %,DIGSA [2]; dosage 80 g/ha,100%
same,Pre-emergence action against VIOTR in %,VIOTR [3]; dosage 20 g/ha,100%
same,Pre-emergence action against VIOTR in %,VIOTR [3]; dosage 80 g/ha,100%
same,Pre-emergence action against SETVI in %,SETVI [4]; dosage 80 g/ha,100%
same,Pre-emergence action against AMARE in %,"AMARE [5]; 20 g/ha, scored visually after 3 weeks vs untreated controls, 100% = plants have died, 0% = like control plants",100%
same,Pre-emergence action against AMARE in %,AMARE [5]; [25],100%
same,Post-emergence action against PHBPU in %,PHBPU [6],90%
same,Pre-emergence action against ECHCG in %,ECHCG [7],100%
same,Pre-emergence action against MATIN in %,MATIN [8]; dosage 20 g/ha,100%
same,Pre-emergence action against MATIN in %,MATIN [8]; dosage 80 g/ha,100%
same,Post-emergence action against ABUTH in %,ABUTH [9]; dosage 5 g/ha,80%
same,Post-emergence action against ABUTH in %,ABUTH [9]; dosage 20 g/ha,80%
same,Post-emergence action against MATIN in %,MATIN [10],80%
same,Post-emergence action at 5 g/ha against AVEFA in %,AVEFA [11]; 5 g/ha,80%
same,Post-emergence action at 20 g/ha against AVEFA in %,AVEFA [11]; 20 g/ha,80%
same,Post-emergence action against SETVI in %,SETVI [12]; dosage 5 g/ha,80%
same,Post-emergence action against SETVI in %,SETVI [12]; dosage 20 g/ha,80%
same,Post-emergence action against POLCO in %,POLCO [13],80%
same,Pre-emergence action against ABUTH (herbicidal activity),ABUTH [14]; [25],100%
same,Pre-emergence action against ABUTH (herbicidal activity in percent),"ABUTH [14]; dosage 20 g/ha, scored visually after 3 weeks vs untreated controls, 100% = plants have died, 0% = like control plants",90%
same,Pre-emergence action against ALOMY (herbicidal activity),ALOMY [15],90%
same,Pre-emergence action against AVEFA in %,AVEFA [16]; 80 g/ha,100%
CNC(=O)c1c(C(F)(F)F)ccc(C(=O)Nc2nnnn2C)c1Br [Example 1-207],pest or weed control at 20 g/ha,"ECHCG [1]; Echinochloa crus-galli, 504 h, dosage 20 g/ha",80%
same,pest or weed control at 20 g/ha,"DIGSA [2]; Digitaria sanguinalis, 504 h, dosage 20 g/ha",100%
same,pest or weed control at 80 g/ha,"DIGSA [2]; Digitaria sanguinalis, 504 h, dosage 80 g/ha",100%
same,pest or weed control at 20 g/ha,VERPE [17],90%
same,pest or weed control at 20 g/ha,"VIOTR [3]; Viola tricolor, 504 h, dosage 20 g/ha",100%
same,pest or weed control at 80 g/ha,"VIOTR [3]; Viola tricolor, 504 h, dosage 80 g/ha",100%
same,pest or weed control at 20 g/ha,SETVI [4]; [26],100%
same,pest or weed control at 80 g/ha,"SETVI [4]; Setaria viridis, 504 h, dosage 80 g/ha",100%
same,pest or weed control at 80 g/ha,VERPE [18],100%
same,pest or weed control at 80 g/ha,PHBPU [19],80%
same,pest or weed control at 20 g/ha,"AMARE [5]; Amaranthus retroflexus, 504 h, 20 g/ha, scored visually after 3 weeks vs untreated controls, 100% = plants have died, 0% = like control plants",100%
same,pest or weed control at 80 g/ha,"AMARE [5]; Amaranthus retroflexus, 504 h, 80 g/ha, scored visually after 3 weeks vs untreated controls, 100% = plants have died, 0% = like control plants",100%
same,pest or weed control at 20 g/ha,"PHBPU [6]; Ipomoea purpurea, 504 h",80%
same,pest or weed control at 20 g/ha,AMARE [20],100%
same,pest or weed control at 80 g/ha,"ECHCG [7]; Echinochloa crus-galli, 504 h",90%
same,pest or weed control at 20 g/ha,"MATIN [8]; Tripleurospermum inodorum, 504 h, dosage 20 g/ha",90%
same,pest or weed control at 80 g/ha,"MATIN [8]; Tripleurospermum inodorum, 504 h, dosage 80 g/ha",100%
same,pest or weed control at 5 g/ha,"ABUTH [9]; Abutilon theophrasti, 504 h, dosage 5 g/ha",80%
same,pest or weed control at 20 g/ha,"ABUTH [9]; Abutilon theophrasti, 504 h, dosage 20 g/ha",90%
same,pest or weed control at 20 g/ha,"MATIN [10]; Tripleurospermum inodorum, 504 h",90%
same,pest or weed control at 80 g/ha,POLCO [21],90%
same,pest or weed control at 5 g/ha,"SETVI [12]; Setaria viridis, 504 h, dosage 5 g/ha",100%
same,pest or weed control at 20 g/ha,SETVI [12]; [26],100%
same,pest or weed control at 20 g/ha,ALOMY [22],90%
same,pest or weed control at 20 g/ha,"POLCO [13]; Fallopia convolvulus, 504 h",100%
same,pest or weed control at 80 g/ha,"ABUTH [14]; Abutilon theophrasti, 504 h, 80 g/ha, scored visually after 3 weeks vs untreated controls (100% = plants have died, 0% = like control plants)",100%
same,pest or weed control at 20 g/ha,"ABUTH [14]; Abutilon theophrasti, 504 h, dosage 20 g/ha, scored visually after 3 weeks vs untreated controls, 100% = plants have died, 0% = like control plants, read-out: Pre-emergence action against ABUTH (herbicidal activity in percent)",100%
same,pest or weed control at 80 g/ha,"ALOMY [15]; Alopecurus myosuroides, 504 h",100%
same,pest or weed control at 80 g/ha,"AVEFA [16]; Avena fatua, 504 h, 80 g/ha",90%
same,pest or weed control at 20 g/ha,"AVEFA [16]; Avena fatua, 504 h, 20 g/ha, scored visually after 3 weeks, 100% = plants have died, 0% = like control plants",80%
same,pest or weed control at 5 g/ha,VIOTR [23]; 5 g/ha,100%
same,pest or weed control at 20 g/ha,VIOTR [23]; 20 g/ha,100%
same,pest or weed control at 5 g/ha,DIGSA [24]; 5 g/ha,90%
same,pest or weed control at 20 g/ha,DIGSA [24]; 20 g/ha,100%
